{"source": "ChEMBL document CHEMBL1139639", "about": "“A three-residue, continuous binding epitope peptidomimetic of ShK toxin as a Kv1.3 inhibitor” (Bioorg Med Chem Lett, 2005)", "molecular_target": "Potassium voltage-gated channel subfamily A member 3 (Mus musculus, UniProt P16390)", "sequence (P16390 whole entry)": "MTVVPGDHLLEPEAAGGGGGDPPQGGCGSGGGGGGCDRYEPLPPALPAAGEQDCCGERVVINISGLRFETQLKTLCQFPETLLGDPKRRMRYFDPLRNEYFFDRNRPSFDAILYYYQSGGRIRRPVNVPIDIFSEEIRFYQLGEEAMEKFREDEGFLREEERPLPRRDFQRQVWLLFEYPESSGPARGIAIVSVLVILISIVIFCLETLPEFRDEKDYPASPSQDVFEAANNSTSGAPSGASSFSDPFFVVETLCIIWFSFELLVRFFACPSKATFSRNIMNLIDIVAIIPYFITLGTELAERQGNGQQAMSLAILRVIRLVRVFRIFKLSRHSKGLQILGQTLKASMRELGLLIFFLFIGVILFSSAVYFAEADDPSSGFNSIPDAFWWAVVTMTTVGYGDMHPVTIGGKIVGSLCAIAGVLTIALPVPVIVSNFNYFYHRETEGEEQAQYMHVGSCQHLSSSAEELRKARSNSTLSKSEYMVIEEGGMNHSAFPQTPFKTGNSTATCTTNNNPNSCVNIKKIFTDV", "assay": "Effective concentration against murine voltage-gated potassium channel subunit Kv1.3 expressed in L929 cells using patch clamp", "assay_type": "cell-based"}
{"smiles": "NCCCCNC(=O)c1ccc(CN=C(N)N)c2ccn(CCc3ccccc3)c12", "values": [{"measurement": "EC50", "result": 75, "unit": "µM"}]}
